Test results taken from EP0390718A1, “Process for preparing new 1-diphenylmethylpiperidine derivatives” (FABRICA ESPANOLA DE PRODUCTOS QUIMICOS Y FARMACEUTICOS, …, priority 1989, dated 1990).

Key:
[1] = molecular target: guinea pig isolated ileum contractions caused by histamine (Cavia porcellus, UniProt P31389); assay: guinea pig isolated ileum contractions caused by histamine (in vitro antihistaminic activity); format: cell-based; settings: drug concentration inhibiting 50% of the response to histamine; 10 minutes of incubation with each concentration; Tyrode solution at 37°C; unit M only printed in method b12 (10⁻⁸-10⁻⁵ M); read-out: CI50 (the source's name)
[2] = system: Swiss male mice; assay: preliminary study of the main pharmacologic effects, observation of symptoms and reflexes in mice; format: in vivo; settings: 300 mg/kg
Description: A preliminary study has been made of the main pharmacologic effects using Swiss male mice distributed in groups of four animals; each group was administered one of the products in doses of 300 mg/kg and the animals began to be observed, logging the time when symptoms appeared or given reflexes decreased: spontaneous activity, appearance of stereotype, trembling, convulsions, abnormal body position, loss of reflexes, extent of palpebral aperture, salivation, pyloerection, hypothermia, lachrymation or change in skin colour; observation lasted for 30 minutes and was repeated 1, 2, 3, 4 and 24 hours after treatment; the reference compound chosen was a well-known antiallergic, ketotyphene.

[3] = Swiss male mice, groups of four, observed 30 minutes and 1, 2, 3, 4 and 24 hours after treatment

Sequence of guinea pig isolated ileum contractions caused by histamine (P31389 whole entry): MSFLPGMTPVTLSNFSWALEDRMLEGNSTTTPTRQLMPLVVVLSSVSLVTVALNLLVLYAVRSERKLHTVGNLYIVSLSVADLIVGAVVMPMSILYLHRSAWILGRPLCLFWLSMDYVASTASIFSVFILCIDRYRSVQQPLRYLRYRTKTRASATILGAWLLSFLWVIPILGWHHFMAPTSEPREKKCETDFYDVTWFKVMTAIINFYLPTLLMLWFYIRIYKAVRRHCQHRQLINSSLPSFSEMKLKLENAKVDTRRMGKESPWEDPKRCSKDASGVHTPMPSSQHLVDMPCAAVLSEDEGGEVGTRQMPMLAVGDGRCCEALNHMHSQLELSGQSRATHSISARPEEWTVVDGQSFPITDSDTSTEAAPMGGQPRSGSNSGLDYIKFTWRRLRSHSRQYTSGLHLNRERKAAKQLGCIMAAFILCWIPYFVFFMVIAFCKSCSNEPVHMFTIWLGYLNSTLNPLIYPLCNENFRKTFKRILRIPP

Compound	IC50 [1] [nM]	Maximum effect observed/No. of animals Decreased spontaneous activity [2, 3]	Maximum effect observed/No. of animals Body reflex loss [2, 3]	Maximum effect observed/No. of animals Hearing reflex loss ([2]; mouse, in vivo)	Maximum effect observed/No. of animals Hypothermia ([2]; mouse, in vivo)	Maximum effect observed/No. of animals Palpebral potosis ([2]; mouse, in vivo)
1-[(4-chlorophenyl)methyl]-N-[1-(diphenylmethyl)piperidine-4-yl]-2-amino-1 H-benzimidazol [Example 4]	63	0				
CN1CCC(=C2c3ccccc3CC(=O)c3sccc32)CC1 [Ketotiphene]		2/4	1/4	-	4/4	1/4
N-[(1-diphenylmethyl)piperidine-4-yl]-1-[(4-fluorophenyl)methyl]-2-amino-1 H-benzimidazol [Example 5]	56	0				
